Legend:
[1] = tested on: IRAK1/4; conditions: 10 μM; cited from earlier work
[2] = tested on: p53, DNA damage response (γH2AX); experiment: p53 and DNA damage response activation in RKO cells (Western blot, primary screen and dose response); format: cell-based; conditions: 16 hours, Western blot, average value
Method: (§1) Primary Screen in RKO cells for compounds having typical CKIα inhibitory activity (β-catenin and p53 stabilization and histone H2AX phosphorylation; see Elyada et al, Nature 2011 Feb. 17; 470(7334):409-13; Pribluda et al, Cancer Cell 2013 Aug. 12; 24(2):242-56). RKO colorectal cells were incubated with 10 μM of each of the compounds for 16 hours at 37° C. Cells were washed with PBS and cell pellets were incubated with ice cold protein lysis buffer containing protease inhibitor cocktail (1/200; Calbiochem) and phosphatase inhibitors (20 mM p-nitrophenyl phosphate (PNPP), 20 mM β-glycerophosphate and 300 nM okadaic acid). Western blot analysis was performed by means of standard techniques. Blots were incubated with antibodies detecting β-catenin (1/2,500; BD Transduction), p53 (DO-1&1801 hybridoma mix; dilution of 1:20 of supernatants from each), CKIα (C-19; 1/1,000; Santa Cruz Biotechnology) and phospho-histoneH2AX (S139; 1/1,000; Millipore). Secondary antibodies were HRP-linked goat anti-mouse, goat anti-rabbit and rabbit anti-goat antibodies (all 1/10,000; Jackson). Blots were developed using ECL (GE Healthcare).
(§2) Active compounds were further analyzed in a dose-response experiment (FIGS. 1A and 1B). Similar to the primary screen, RKO cells were incubated with descending concentrations of each of the active compounds for 16 hours at 37° C. Cell extract isolation and Western Blot analysis were similar to the primary screen.
(§3) Table 1 provides quantified information for compounds of the invention in activation of p53 and DNA damage response (DDR) and β-catenin stabilization as an indicator of Wnt pathway activation. p53 activation was determined according to the degree of protein stabilization in several Western blot assays (Western blot examples are shown in FIGS. 1A and 1B). […] In contrast, A35 started stabilizing p53 at […], with maximal stabilization at […] (FIG. 1A, upper right panel) and thus received an average value of +++ for p53 activation.

[3] = tested on: Wnt/β-catenin; experiment: β-catenin stabilization (Wnt pathway activation) in RKO cells (Western blot); format: cell-based; conditions: 16 hours, Western blot
Method: as §1, §2, §3

[4] = tested on: AML mice (MLL-AF9); experiment: MLL-AF9 acute myeloid leukemia (AML) mouse model; format: in vivo
Method: Generation of a mouse model of acute myeloid leukemia (AML) (FIG. 6) and treatment with the CKIα inhibitor A14 (FIGS. 7, 8 and 9) or A51 (FIGS. 11 and 12). To generate the MLL-AF9 Acute myeloid leukemia (AML) model, bone marrow (BM) cells from 10 week old wild type mouse were extracted and enriched for cKit expressing cells (EasySep #18757) and incubated overnight in RPMI supplemented with 15% FCS L-Glutamine, Pen/Strep (Biological Industries, Israel) and stem cell factor (SCF), IL-3, IL-6 and TPO (Peprotech). The culture was infected with MSCV-MLL-AF9-IRES-GFP retrovirus construct containing supernatant medium for 4 hours, then growth medium was added and infected cells were incubated at 37° C. for additional 24 h. The culture was then injected I.V. into sub lethally irradiated (500 rad) mice. Upon detectable steady increase of GFP expressing cells in the mice peripheral blood (checked by FACS analysis) and rise in leukocyte numbers and immature cells (detected by Wright-Giemsa stained blood films), mice were sacrificed and their BM was transferred (1st BMT) to sublethally irradiated WT hosts. Upon emergence of AML disease mice were sacrificed and 50,000 BM cells were transplanted (2nd BMT) into WT host mice. GFP expressing cells were monitored in the peripheral blood and upon detecting >10% GFP^+ in PB (day 11 after BMT) mice were treated with A14 inhibitor (FIG. 7A). A14 was administered by oral gavage once a day at a dose of 20 mg/kg for 3 days followed by 10 mg/kg/day for 6 more days. The inhibitor was dissolved in 1% methyl cellulose with 0.1% Tween 80 and 0.2% Poly-ethylene glycol (Vehicle). Control mice were treated with the vehicle only. Mice were monitored daily for cachexia, lethargy, and ruff coats, and moribund mice were sacrificed. For a single dose experiment (FIG. 11A) A51 was administered by oral gavage at a single dose of 20 mg/kg and mice were sacrificed 16 hours following treatment.
Complete blood counts. Peripheral venous blood was obtained from the mouse facial vein using standard techniques and analyzed using the auto hematology analyzer BC-2800 (Mindray) per manufacturer's instructions.
Single-dose treatment effect of a CKI inhibitor in AML mice and PD-L1 expression. AML mice were prepared by inoculating MLL-AF9 oncogene-transduced bone marrow cells to C57/BL6 mice. MLL-AF9 fusion represents one of a poor prognosis human AML induced by chromosomal translocation. 30 days after leukemia inoculation, the recipient mice have high white blood cells (WBC) counts (×10 higher than a normal mouse), and harbor >95% leukemia blasts in the bone marrow and 50% of the peripheral WBC in these mice are AML blasts. These mice have splenomegaly and their bones are pale and fragile due to the acute leukemia (FIG. 12).

[5] = biological target: T1, IRAK1 (Homo sapiens, UniProt P51617); experiment: Kd measurements for the interaction with IRAK1; format: binding
T1 construct: RKO cells were incubated for 16 hours at 37° C. with the indicated concentrations of compounds; endogenous in cells; host or cells: RKO cells, stimulated with TNFα

[6] = biological target: T1, IRAK1; experiment: IRAK1 inhibition in RKO cells treated with TNFα (Western blot); format: cell-based
Method: (§4) Cells were harvested and analyzed by Western blot. Blots were incubated with the following antibodies: Phospho-IRAK1 (Thr209), (A1074, AssayBiothechnology; 1/1,000), Phospho-IKKα/β (Ser176/180) (16A6, Cell Signaling; 1/1,000), IKKα (2682, cell signaling; 1/1,1000), IKK β (2370, cell signaling; 1/1,1000), Phospho-c-Jun (Ser 63) (9261, cell signaling; 1/1,1000), p53 (DO-1&1801 hybridoma mix; dilution of 1:20 of supernatants from each), CKIα (C-19; 1/1,000; Santa Cruz Biotechnology) and phospho-histoneH2AX (S139; 1/1,000; Millipore). Secondary antibodies were HRP-linked goat anti-mouse, goat anti-rabbit and rabbit anti-goat antibodies (all 1/10,000; Jackson). Inhibition of Phospho-IRAK1, Phospho-IKKα/β and Phospho-c-Jun indicate IRAK1 inhibition. p53 stabilization and phosphorylation of H2AX (γH2AX), a marker of DNA damage, indicative of CKIα kinase inhibition. CKIα protein levels serves as a loading control.
as §4, with “IRAK1 Inhibition with compounds of the invention. RKO cells were incubated for 16 hours at 37° C. with the indicated concentrations of compounds of the invention A51 (1 μM) and A14 (2 μM) (FIG. 10). At the indicated time points, RKO were treated with TNFα (100 units/ml). Cells” for “Cells”, “IKKβ” for “IKK β”, “Blots were developed using ECL (GE Healthcare). […] Also shown is” for “Inhibition of Phospho-IRAK1, Phospho-IKKα/β and Phospho-c-Jun indicate IRAK1 inhibition.”

[7] = oral single dose 20 mg/Kg, 16 hrs

T1 sequence (P51617 whole entry): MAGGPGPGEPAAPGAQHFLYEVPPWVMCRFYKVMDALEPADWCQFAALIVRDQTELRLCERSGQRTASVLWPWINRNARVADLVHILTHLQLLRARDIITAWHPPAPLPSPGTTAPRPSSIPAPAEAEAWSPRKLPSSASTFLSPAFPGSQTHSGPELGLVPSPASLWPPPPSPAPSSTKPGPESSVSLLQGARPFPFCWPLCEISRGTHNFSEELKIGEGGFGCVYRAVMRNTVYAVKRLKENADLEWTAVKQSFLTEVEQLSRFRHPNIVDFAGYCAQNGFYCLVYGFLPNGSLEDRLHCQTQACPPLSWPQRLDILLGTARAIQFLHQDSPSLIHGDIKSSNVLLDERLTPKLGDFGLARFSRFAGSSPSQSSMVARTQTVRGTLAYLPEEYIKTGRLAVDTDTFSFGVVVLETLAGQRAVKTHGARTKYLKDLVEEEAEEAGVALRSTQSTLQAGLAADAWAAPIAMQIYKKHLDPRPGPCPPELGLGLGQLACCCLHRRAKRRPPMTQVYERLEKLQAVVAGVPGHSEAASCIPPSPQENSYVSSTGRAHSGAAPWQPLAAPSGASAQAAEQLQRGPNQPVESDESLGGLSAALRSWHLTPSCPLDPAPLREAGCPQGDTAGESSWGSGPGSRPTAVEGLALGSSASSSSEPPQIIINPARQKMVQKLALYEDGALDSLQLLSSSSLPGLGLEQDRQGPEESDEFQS

Structure (SMILES)	DDR & p53 activity [2]	β-Catenin activity [3]	further results
O=C(Nc1nc2ccccc2n1CCN1CCOCC1)c1cccc([N+](=O)[O-])c1 [Amgen's IRAK1-4 inhibitor]	–	–	inhibition of IRAK1/4 in cell lines [1]: 70%
Cn1ncc(-c2ccnc(N[C@H]3CC[C@H](N4CCOCC4)CC3)n2)c1CC1CC1 [Compound A48, 4-(5-(cyclopropylmethyl)-1-methyl-1H-pyrazol-4-yl)-N-((1r, 4r)-4-morpholinocyclohexyl)pyrimidin-2-amine]	+ (+ indicates low, yet significant activation at a compound concentration of 6 μM)	+ (+ indicates low, yet significant activation at a compound concentration of 6 μM)	–
Cn1ncc(-c2nc(N[C@H]3CC[C@H](N)CC3)ncc2Cl)c1CC1CC1 [Compound A51, (1R, 4R)—N^1-(5-chloro-4-(5-(cyclopropylmethyl)-1-methyl-1H-pyrazol-4-yl)pyrimidin-2-yl)cyclohexane-1,4-diamine]	++++ (++++ indicates maximal activation of p53 and DDR at >0.5 μM)	+++ (+++ indicates maximal β-catenin or p53 stabilization at >2 μM)	leukemic spleen size (in words) [4, 7]: shrinking of the leukemic spleen; reduction of proportion of leukemic blasts (GFP+ cells) in the blood [4, 7]: > 90%; reduction of proportion of leukemic blasts (GFP+ cells) in the bone marrow [4, 7]: 50%; total leukemia cells in the blood (in words) [4, 7]: massive reduction; bone colour (in words) ([4]; single dose 20 mg/Kg): Opaque bones turned to normal color; Kd [5]: 2.9 nM; IRAK1 activation and activation of the IRAK1 target IKK (in words) ([6]; RKO cells, Western blot, A51 1 μM, A14 2 μM, 16 hours, TNFα 100 units/ml): inhibition of IRAK1 activation; inhibition at 1 µM ([6]; RKO, read-out: inhibition of phospho-(active) IRAK1): 100%
CC(C)n1ncc(-c2ccnc(N[C@H]3CC[C@H](N)CC3)n2)c1CC1CCC1 [Compound A53, (1R,4R)—N^1-(4-(5-(cyclobutylmethyl)-1-isopropyl-1H-pyrazol-4-yl)pyrimidin-2-yl)cyclohexane-1,4-diamine]	+ (+ indicates low, yet significant activation at a compound concentration of 6 μM)	+ (+ indicates low, yet significant activation at a compound concentration of 6 μM)	–
Cn1ncc(-c2nc(N[C@H]3CC[C@H](Nc4ccccc4)CC3)ncc2Cl)c1CC1CC1 [Compound A68, (1R,4R)—N^1-(5-chloro-4-(5-(cyclopropylmethyl)-1-methyl-1H-pyrazol-4-yl)pyrimidin-2-yl)-N^4-phenylcyclohexane-1,4-diamine]	+ (+ indicates low, yet significant activation at a compound concentration of 6 μM)	+ (+ indicates low, yet significant activation at a compound concentration of 6 μM)	–
Cn1ncc(-c2nc(NC3CCC(NCc4cn[nH]c4)CC3)ncc2Cl)c1CC1CC1 [Compound A75, (1R,4R)—N^1-((1H-pyrazol-4-yl)methyl)-N^4-(5-chloro-4-(5-(cyclopropylmethyl)-1-methyl-1H-pyrazol-4-yl)pyrimidin-2-yl)cyclohexane-1,4-diamine]	+++++ (+++++ indicates maximal activation of p53 and DDR at >0.1 μM)	+++ (+++ indicates maximal β-catenin or p53 stabilization at >2 μM)	–
Cn1ncc(-c2nc(NC3CCC(NCc4cn[nH]c4)CC3)ncc2F)c1CC1CC1 [Compound A85, (1R,4R)—N^1-((1H-pyrazol-4-yl)methyl)-N^4-(4-(5-(cyclopropylmethyl)-1-methyl-1H-pyrazol-4-yl)-5-fluoropyrimidin-2-yl)cyclohexane-1,4-diamine]	+++ (+++ indicates maximal β-catenin or p53 stabilization at >2 μM)	+++ (+++ indicates maximal β-catenin or p53 stabilization at >2 μM)	–
Cn1ncc(-c2nc(NC3CCC(N)CC3)ncc2F)c1CC1CC1 [Compound A86, (1R,4R)—N^1-(4-(5-(cyclopropylmethyl)-1-methyl-1H-pyrazol-4-yl)-5-fluoropyrimidin-2-yl)cyclohexane-1,4-diamine]	+++++ (+++++ indicates maximal activation of p53 and DDR at >0.1 μM)	+++ (+++ indicates maximal β-catenin or p53 stabilization at >2 μM)	–
Cn1ncc(-c2nc(N[C@H]3CC[C@H](NC(=O)c4cn[nH]c4)CC3)ncc2Cl)c1CC1CC1 [Compound A87, N-((1R,4R)-4-((5-chloro-4-(5-(cyclopropylmethyl)-1-methyl-1H-pyrazol-4-yl)pyrimidin-2-yl)amino)cyclohexyl)-1H-pyrazole-4-carboxamide]	+ (+ indicates low, yet significant activation at a compound concentration of 6 μM)	+++ (+++ indicates maximal β-catenin or p53 stabilization at >2 μM)	–
